The source of these data is a melting point compilation (Tetko et al.).

As for `C=CC(C)O` (stereo not given), the melting point was -100 °C. Next, `CSC(=NC#N)Nc1ccccc1`: 185 to 186 °C.

Take `CC(=O)Nc1cc(N=Nc2ccccc2)c(C)c(NC(C)=O)c1`: the melting point was determined as 255 °C. `O=C1OC(=O)C23CC4=C(CC=CC4)CC12CC1=C(CC=CC1)C3` (stereo not given) had a melting point of 220 to 247 °C.

Regarding `CN1C(CCl)Nc2cc(Cl)c(S(N)(=O)=O)cc2S1(=O)=O` (stereo not given), the melting point turned out to be 225 °C. Consider `CC(=O)Nc1ccc(C(C)=O)c(C)c1`, for which the melting point was determined as 139 °C. Next, `Cn1nccc1N`: 73 to 76 °C; `O=C(CBr)Nc1ccccc1C(=O)c1ccccc1`: 94 to 95 °C; `O=C(O)C1=Cc2ccccc2OC1`: 150 °C. The compound `O=C(O)/C=C/c1cccc(F)c1` yielded a melting point of 167 °C. Then `CC12CCC(C(Cl)C1=O)C2(C)C` (stereo not given), with 106 °C; and `CC(C)C1COC2(C)C=CC(=O)N12` (stereo not given), with 46 to 50 °C; and `c1ccc(-c2ccc3cc4ccc(-c5ccccc5)nc4cc3n2)cc1`, with 279 °C. Next, `CCOC(C/N=C/c1cccc(/C=N/CC(OCC)OCC)c1)OCC`: 61 °C; `N#Cc1ccc(C(F)(F)F)c(F)c1`: 47 °C; `C=CC1C2=CCOC(=O)C2=COC1OC1OC(CO)C(O)C(O)C1O` (stereo not given): 191 °C. On to `CC(C)(C)NCC(O)COc1nsnc1N1CCOCC1` (stereo not given), for which the melting point turned out to be 202 °C. In turn, `Cc1cc(C)nc(S)n1` came in with a melting point of 213 to 217 °C. Then `Cc1cc(C)c(NC(=O)C(C(F)(F)F)C(F)(F)F)c(C)c1`, with 189 °C; and `O=C(O)CN1C(=O)CSC1=S`, with 147 °C; and `Clc1nc(Cl)c2nc[nH]c2n1`, with 184 to 186 °C. `O=CC(C=O)c1ccc(C(=O)O)cc1[N+](=O)[O-]` came in with a melting point of 199 to 205 °C.

The compound `CCCCCc1ccc(C(=O)O)cc1` came in with a melting point of 85 to 90 °C. Compound `Fc1ccc(F)c(F)c1F` showed a melting point of -42 °C. Next, `CCCc1cc(C(N)=S)ccn1`: 137 °C. Regarding `O=C(O)C=CCCCCCCCCC(=O)O`, the melting point amounted to 166 °C. As for `CC1(C)CC(=O)C2=C(C1)Nc1c(ccc3ccccc13)C2c1ccc(Cl)cc1` (stereo not given), the melting point was found to be 139 °C. `Cc1ncccn1` returned a melting point of -4 °C.

The compound `COc1ccc(N=C=O)c(OC)c1` displayed a melting point of 32 °C. On to `CSc1ccc(C(F)(F)F)cc1[N+](=O)[O-]`, for which the melting point was in the range of 94 to 96 °C. Next, `CCOC(=O)c1cccc(N)c1`: 29 °C; `CCCCCCCCCCCCCC(=O)Nc1ccccc1`: 82 to 87 °C. Then `O=C(CC(=O)C(F)(F)F)c1ccc2c(c1)OCO2`, with 108 to 109 °C; and `CC(C(=O)O)c1cccc(C(=O)c2ccccc2)c1` (stereo not given), with 94 °C. Then `CCC(C)(Br)CBr` (stereo not given), with -70 °C; and `Cc1ccc(C(c2ccc(C)o2)c2cc([N+](=O)[O-])ccc2O)o1`, with 143 °C; and `COC(=O)c1c(Cl)nn(C)c1S(=O)(=O)NC(=O)Nc1nc(OC)cc(OC)n1`, with 176 °C. As to `CC(C)(C)P(=O)(O)O`, the melting point was in the range of 188 to 192 °C. `CCN(CC)C(=O)C(Cl)(Cl)Cl` showed a melting point of 27 °C. Then `O=Cc1ccc2nccn2c1`, with 152 °C.

In turn, `CC12CCC3C(CCC4CC(C[N+](=O)[O-])=CCC43C)C1CCC2O` (stereo not given) displayed a melting point of 129 °C. `N#CC(O)c1ccccc1` (stereo not given) had a melting point of -10 °C. With `O=Cc1ccc(C=O)s1`, the melting point fell in the range of 114 to 117 °C. Regarding `CC(=O)c1cc(Cl)ccc1O`, the melting point lay in the range of 53 to 56 °C. Then `CCOC(=O)C(C#N)=C(N)c1cc2cccc(OC)c2oc1=O`, with 251 to 252 °C; and `CN(C)CCOc1ccccc1N`, with 37 to 40 °C.

With `O=C(/C=C/c1ccc(Cl)cc1Cl)c1ccccc1`, the melting point was 72.3 °C. The compound `O=C(O)C(C(=O)O)c1ccccc1` came in with a melting point of 153 to 155 °C. Then `OCc1cc(C(F)(F)F)cc(C(F)(F)F)c1`, with 54 °C. Then `Clc1ccc(Cl)c(-c2nnn[nH]2)c1`, with 157 °C; and `COc1ccc([N+](=O)[O-])c(N)c1`, with 131 °C. For `ClCOCCl`, the melting point is -41.5 °C.

Compound `CC(C)(C)OC(=O)C1(S(=O)(=O)c2ccc(Cl)cc2)CC1` displayed a melting point of 110 °C. `O=C=Nc1ccc(Cl)cc1` gave a melting point of 30 °C. With `S=c1cc(-c2ccccc2)oc(-c2ccccc2)c1`, the melting point came to 170 °C. Then `C=CCN=C=S`, with -80 °C; and `O=c1occo1`, with 19 to 22 °C; and `NC(=O)c1nccnc1C(N)=O`, with 268 °C. Next, `Cc1cc(CO)c(-c2ccccc2)o1`: 56 to 59 °C; `O=C1OCC(O)C1O` (stereo not given): 99 to 102 °C. `CC1(C)OC(C)(C(O)(Cc2ccccc2)Cc2ccccc2)CCC1C(=O)O` (stereo not given) had a melting point of 137 to 138 °C. With `CCC(=O)c1ccc(C(F)(F)F)c(F)c1`, the melting point was 37 °C. Next, `C=CCn1c(=S)[nH]c2ccccc2c1=O`: 206 to 207 °C; `O=C(O)C=Cc1c(F)c(F)c(F)c(F)c1F`: 153 °C. Next, `Cc1n[nH]c(SCc2ccc(Cl)cc2)n1`: 151 to 153 °C. Next, `Nc1ccc([N+](=O)[O-])c(F)c1`: 160 °C. For `ClCCc1ccc(CCCl)cc1`, the melting point is 47 °C. `C#CCCCCCCC(=O)O`: the melting point worked out at 19 °C. Then `O=Cc1cc([N+](=O)[O-])ccc1N1CCOCC1`, with 115 °C; and `O=C(CO)[C@@H](O[C@H]1O[C@H](CO)[C@@H](O)[C@H](O)[C@H]1O)[C@H](O)[C@H](O)CO`, with 168 °C.

With `O=S(=O)(Cl)c1cc(Cl)ccc1Cl`, the melting point was 38 °C. Turning to `O=C1c2ccccc2C(=O)C1c1ccc(F)cc1`, the melting point stood at 120 °C. Next, `CC(C)(C)c1cc(C(F)(F)F)n[nH]1`: 178 to 180 °C; `Cc1c(C)c(CCl)c(C)c(CCl)c1C`: 117 °C; `N[C@@H](CCC(=O)OCc1ccccc1)C(=O)O`: 169 °C. Then `ON=CC=Cc1ccccc1`, with 115 to 125 °C; and `Cc1oc(S(=O)(=O)N2CCOCC2)cc1C(=O)O`, with 184 to 186 °C.

Turning to `O=C(O)C=Cc1cc(Br)ccc1F`, the melting point was 195 to 199 °C. As for `CCCc1ccc(C(C)=NO)cc1`, the melting point lay in the range of 48 to 50 °C. For `Fc1cccc(CBr)c1C(F)(F)F`, the melting point was determined as 42 °C. `NC=S` returned a melting point of 26.5 °C. Consider `CC(=O)C(=O)Nc1ccccc1`, for which the melting point came out at 100 °C. Next, `O=P(O)(O)Cc1ccccc1`: 169 °C. Next, `NN=C(c1ccccc1)c1ccccc1`: 96.5 °C; `CCCCc1nc(CO)c[nH]1`: 94 to 97 °C.

Usually melting point stands for the temperature of the solid-liquid transition.
